Like-named read-outs stand apart in the source and are kept apart here.
Legend:
Assay type in all cases: cell-based
[1] = tested on: Pseudomonas aeruginosa (Ps. aeruginosa—ATCC # 9027); experiment: Microtiter plate MIC / synergy test (Kull synergy index), M9GY medium, 30° C.; conditions: for Ca = Component A (propiconazole), end-point concentration (MIC), alone or in mixture: Component B OIT; for Cb = Component B (OIT), end-point concentration (MIC), alone or in mixture: Component A propiconazole; for MIC: Pseudomonas aeruginosa, read-out: MIC of the component acting alone (end point)
Text: (§1) One measure of synergism is the industrially accepted method described by Kull, F. C.; Eisman, P. C.; Sylwestrowicz, H. D. and Mayer, R. L., in Applied Microbiology 9:538-541 (1961), using the ratio determined by the formula: Ca/CA+Cb/CB=Synergy Index (“SI”) wherein: • CA=concentration of compound A (first component) in ppm, acting alone, which produced an end point (MIC of Compound A). • Ca=concentration of compound A in ppm, in the mixture, which produced an end point. • CB=concentration of compound B (second component) in ppm, acting alone, which produced an end point (MIC of Compound B). • Cb=concentration of compound B in ppm, in the mixture, which produced an end point.
(§2) When the sum of Ca/CA and Cb/CB is greater than one, antagonism is indicated. […] The lower the SI, the greater the synergy shown by that particular mixture. The minimum inhibitory concentration (MIC) of an antimicrobial compound is the lowest concentration tested under a specific set of conditions that prevents the growth of added microorganisms.
(§3) Synergy tests were conducted using standard microtiter plate assays with media designed for optimal growth of the test microorganism. Minimal salt medium supplemented with 0.2% glucose and 0.1% yeast extract (M9GY medium) was used for bacteria testing; Potato Dextrose Broth (PDB medium) was used for yeast and mold testing. In this method, a wide range of combinations of microbicides was tested by conducting high resolution MIC assays in the presence of various concentrations of biocides. High resolution MICs were determined by adding varying amounts of microbicide to one column of a microtitre plate and doing subsequent ten-fold dilutions using an automated liquid handling system to obtain a series of end points ranging of active ingredient. The synergy of the combinations of the present invention was determined against two bacteria, Pseudomonas aeruginosa (Ps. aeruginosa—ATCC # 9027) and Staphylococcus aureus (S. aureus—ATCC # 6538), a yeast, Candida albicans (C. albicans—ATCC # 10231), and a mold, Aspergillus niger (A. niger—ATCC 16404). The bacteria were used at a concentration of about 1-6×10^6 bacteria per mL and the yeast and mold at 1−5×10^5 fungi per mL. These microorganisms are representative of natural contaminants in many consumer and industrial applications. […] (yeast and mold) or 30° C. (bacteria).

[2] = tested on: Staphylococcus aureus (S. aureus—ATCC # 6538); experiment: as above; set-up: Ca = Component A (tebuconazole), end-point concentration (MIC), alone or in mixture / Ca = Component A (propiconazole), end-point concentration (MIC), alone or in mixture: unit: ppm; conditions: for MIC: Staphylococcus aureus, read-out: MIC of the component acting alone (end point); for Cb = Component B (OIT), end-point concentration (MIC), alone or in mixture: Component A propiconazole
Text: as §1, §2, §3

[3] = tested on: Candida albicans (C. albicans—ATCC # 10231); experiment: Microtiter plate MIC / synergy test (Kull synergy index), PDB medium, 25° C.; set-up: Ca = Component A (tebuconazole), end-point concentration (MIC), alone or in mixture / Ca = Component A (propiconazole), end-point concentration (MIC), alone or in mixture: unit: ppm; conditions: for Cb = Component B (OIT), end-point concentration (MIC), alone or in mixture: Component A propiconazole; for MIC of the component acting alone (end point) / MIC: C. albicans; for MIC: Candida albicans, read-out: MIC of the component acting alone (end point)
Text: as §1, §2, §3

[4] = tested on: Aspergillus niger (A. niger—ATCC 16404); experiment: as above; conditions: for MIC: Aspergillus niger, read-out: MIC of the component acting alone (end point)
Text: as §1, §2, §3

[5] = tested on: Gloeophyllum trabeum (G. trabeum—ATCC # 11593); experiment: Application test: treated paper disc on Malt agar plate, fungal growth observed visually after 4 weeks; conditions: G. trabeum ATCC # 11539, contact time 4 weeks
Method: (§4) An application test was performed to evaluate synergy of DCOIT/thifluzamide alone and in combination against Gloeophyllum trabeum (G. trabeum—ATCC # 11593) and Trametes vesicolor (T. vesicolor—ATCC # 4262). A paper disc was dipped in the treatment solution, air dried and placed on Malt agar plate streaked with the test organisms. The surface of the disc was also swabbed with the test organisms. The agar plates were incubated at 25° C. for 4 weeks. Fungal growth was then observed visually.

[6] = tested on: Trametes vesicolor (T. vesicolor—ATCC # 4262); experiment: as above; conditions: T. vesicolor ATCC # 42462, contact time 4 weeks
Method: as §4

[7] = Ps. Aeruginosa ATCC # 9027, contact time 24 hour
[8] = Ps. Aeruginosa ATCC # 9027, contact time 48 hour
[9] = S. aureus, contact time 24 hour, Component B CMIT/MIT
[10] = S. aureus, contact time 24 hour, Component B copper 8-hydroxyquinoline
[11] = S. aureus, contact time 48 hour, Component B copper 8-hydroxyquinoline
[12] = ATCC6538, 24 h, S. aureus, contact time 24 hour
[13] = C. albicans ATCC # 10231, contact time 24 hour, Component B CMIT/MIT
[14] = C. albicans ATCC # 10231, contact time 24 hour, Component B copper 8-hydroxyquinoline
[15] = C. albicans ATCC # 10231, contact time 48 hour, Component B copper 8-hydroxyquinoline
[16] = A. niger ATCC # 16404, contact time 3 days, Component B copper 8-hydroxyquinoline
[17] = A. niger ATCC # 16404, contact time 7 days, Component B copper 8-hydroxyquinoline
[18] = ATCC16404, 72 h, A. niger, contact time 3 days
[19] = ATCC16404, 168 h, A. niger, contact time 7 days
[20] = Ps. aeruginosa, contact time 24 hour
[21] = ATCC9027, 24 h, Ps. aeruginosa, contact time 24 hour
[22] = ATCC9027, 48 h, Ps. aeruginosa, contact time 48 hour
[23] = S. aureus, contact time 24 hour
[24] = S. aureus, contact time 48 hour
[25] = ATCC6538, 48 h, S. aureus, contact time 48 hour
[26] = ATCC10231, 24 h, contact time 24 hour

Compound: CCCC1COC(Cn2cncn2)(c2ccc(Cl)cc2Cl)O1 (stereo not shown) [propiconazole]
- Ca = Component A (propiconazole), end-point concentration (MIC), alone or in mixture [1, 7]: 800
- Ca = Component A (propiconazole), end-point concentration (MIC), alone or in mixture [1, 8]: 800
- Ca = Component A (propiconazole), end-point concentration (MIC), alone or in mixture [2, 9]: 100
- Ca = Component A (propiconazole), end-point concentration (MIC), alone or in mixture ([2]; S. aureus, contact time 24 hour, Component B OIT): 100
- Ca = Component A (propiconazole), end-point concentration (MIC), alone or in mixture [2, 10]: 100
- Ca = Component A (propiconazole), end-point concentration (MIC), alone or in mixture ([2]; S. aureus, contact time 48 hour, Component B OIT): 100
- Ca = Component A (propiconazole), end-point concentration (MIC), alone or in mixture [2, 11]: 100
- MIC [2, 12]: 100 µg/mL
- Ca = Component A (propiconazole), end-point concentration (MIC), alone or in mixture [3, 13]: 50
- Ca = Component A (propiconazole), end-point concentration (MIC), alone or in mixture ([3]; C. albicans ATCC # 10231, contact time 24 hour, Component B OIT): 50
- Ca = Component A (propiconazole), end-point concentration (MIC), alone or in mixture [3, 14]: 50
- Ca = Component A (propiconazole), end-point concentration (MIC), alone or in mixture ([3]; C. albicans ATCC # 10231, contact time 48 hour, Component B OIT): 50
- Ca = Component A (propiconazole), end-point concentration (MIC), alone or in mixture [3, 15]: 50
- Ca = Component A (propiconazole), end-point concentration (MIC), alone or in mixture ([4]; A. niger ATCC # 16404, contact time 3 days, Component B CMIT/MIT): 20
- Ca = Component A (propiconazole), end-point concentration (MIC), alone or in mixture [4, 16]: 20
- Ca = Component A (propiconazole), end-point concentration (MIC), alone or in mixture [4, 17]: 25
- MIC [4, 18]: 20 µg/mL
- MIC [4, 19]: 20 µg/mL

Compound: CCCCCCCCn1sccc1=O [OIT, 2-n-octyl-4-isothiazolin-3-one]
- Cb = Component B (OIT), end-point concentration (MIC), alone or in mixture [1, 7]: 390
- Cb = Component B (OIT), end-point concentration (MIC), alone or in mixture [1, 8]: 525
- MIC of the component acting alone (end point) [1, 20]: 390 ppm
- MIC [1, 21]: 390 µg/mL
- MIC [1, 22]: 415 µg/mL
- Cb = Component B (OIT), end-point concentration (MIC), alone or in mixture [2, 23]: 63
- Cb = Component B (OIT), end-point concentration (MIC), alone or in mixture [2, 24]: 78
- MIC [2, 12]: 63 µg/mL
- MIC [2, 25]: 78 µg/mL
- Cb = Component B (OIT), end-point concentration (MIC), alone or in mixture ([3]; C. albicans ATCC # 10231, contact time 24 hour): 1.3
- Cb = Component B (OIT), end-point concentration (MIC), alone or in mixture ([3]; C. albicans ATCC # 10231, contact time 48 hour): 1.3
- MIC of the component acting alone (end point) ([3]; contact time 24 hour): 0.9 ppm
- MIC [3, 26]: 0.6 µg/mL
- MIC ([3]; ATCC10231, 48 h, contact time 48 hour): 0.9 µg/mL
- MIC [4, 18]: 3.3 µg/mL
- MIC [4, 19]: 3.3 µg/mL

Compound: Cn1sccc1=O [MI, 2-methyl-4-isothiazolin-3-one]
- MIC ([1]; ATCC9027, 24 h): 20 µg/mL
- MIC ([1]; ATCC9027, 48 h): 20 µg/mL
- MIC ([2]; ATCC6538, 24 h): 30 µg/mL
- MIC ([2]; ATCC6538, 48 h): 40 µg/mL
- MIC ([4]; ATCC16404, 72 h): 450 µg/mL
- MIC ([4]; ATCC16404, 168 h): 450 µg/mL

Compound: Cc1nc(C(F)(F)F)c(C(=O)Nc2c(Br)cc(OC(F)(F)F)cc2Br)s1 [thifluzamide]
- Cb = Component B (thifluzamide), end-point concentration, alone or in mixture ([5]; Component A DCOIT): >960
- Cb = Component B (thifluzamide), end-point concentration, alone or in mixture ([6]; Component A DCOIT): 320

Compound: CC(C)(C)C(O)(CCc1ccc(Cl)cc1)Cn1cncn1 (stereo not shown) [tebuconazole]
- Ca = Component A (tebuconazole), end-point concentration (MIC), alone or in mixture ([1]; Ps. Aeruginosa ATCC # 9027, contact time 24 hour, Component B copper 8-hydroxyquinoline): 900
- MIC [1, 21]: 900 µg/mL
- MIC [1, 22]: 900 µg/mL
- Ca = Component A (tebuconazole), end-point concentration (MIC), alone or in mixture [2, 9]: 50
- Ca = Component A (tebuconazole), end-point concentration (MIC), alone or in mixture [2, 10]: 50
- Ca = Component A (tebuconazole), end-point concentration (MIC), alone or in mixture ([2]; S. aureus, contact time 48 hour, Component B CMIT/MIT): 50
- Ca = Component A (tebuconazole), end-point concentration (MIC), alone or in mixture [2, 11]: 50
- MIC [2, 12]: 50 µg/mL
- MIC [2, 25]: 50 µg/mL
- Ca = Component A (tebuconazole), end-point concentration (MIC), alone or in mixture [3, 13]: 50
- Ca = Component A (tebuconazole), end-point concentration (MIC), alone or in mixture [3, 14]: 60
- Ca = Component A (tebuconazole), end-point concentration (MIC), alone or in mixture ([3]; C. albicans ATCC # 10231, contact time 48 hour, Component B CMIT/MIT): 50
- Ca = Component A (tebuconazole), end-point concentration (MIC), alone or in mixture [3, 15]: 60
- MIC [3, 26]: 50 µg/mL
- Ca = Component A (tebuconazole), end-point concentration (MIC), alone or in mixture [4, 16]: 8
- Ca = Component A (tebuconazole), end-point concentration (MIC), alone or in mixture [4, 17]: 8
- MIC [4, 18]: 8 µg/mL
- MIC [4, 19]: 8 µg/mL

Compound: CCCCNC(=O)OCC#CI [IPBC, 3-iodo-2-propynyl-butylcarbamate]
- MIC of the component acting alone (end point) [1, 20]: 263 ppm
- MIC of the component acting alone (end point) ([1]; Ps. aeruginosa, contact time 48 hour): 263 ppm
- MIC of the component acting alone (end point) [2, 23]: 34 ppm
- MIC of the component acting alone (end point) [2, 24]: 42 ppm
- MIC of the component acting alone (end point) ([3]; contact time 24 hour): 4.2 ppm
- MIC of the component acting alone (end point) ([3]; contact time 48 hour): 4.2 ppm
- MIC of the component acting alone (end point) ([4]; A. niger, contact time 3 days): 0.4 ppm

Compound: CCCCCCCCn1sc(Cl)c(Cl)c1=O [DCOIT, 4,5-dichloro-2-n-octyl-4-isothiazolin-3-one]
- MIC [1, 21]: 3.2 µg/mL
- MIC [1, 22]: 5.3 µg/mL
- MIC [2, 12]: 0.1 µg/mL
- MIC [2, 25]: 0.4 µg/mL
- Ca = Component A (DCOIT), end-point concentration, alone or in mixture ([5]; Component B thifluzamide): 320
- Ca = Component A (DCOIT), end-point concentration, alone or in mixture ([6]; Component B thifluzamide): 320
